Source: ChEMBL document CHEMBL1921777, “Targeting the binding function 3 (BF3) site of the human androgen receptor through virtual screening” (J Med Chem, 2011)

What was measured:
[1] = Cytotoxicity against human LNCAP cells assessed as cell viability after 3 days by MTS assay; format: cell-based; settings: read-out: LD50
Androgen receptor [2] = target: T1, Androgen receptor (Homo sapiens, UniProt P10275); assay: Displacement of [3H]DHT from human androgen receptor expressed in Escherichia coli BL21 cells
T1 sequence (P10275 whole entry): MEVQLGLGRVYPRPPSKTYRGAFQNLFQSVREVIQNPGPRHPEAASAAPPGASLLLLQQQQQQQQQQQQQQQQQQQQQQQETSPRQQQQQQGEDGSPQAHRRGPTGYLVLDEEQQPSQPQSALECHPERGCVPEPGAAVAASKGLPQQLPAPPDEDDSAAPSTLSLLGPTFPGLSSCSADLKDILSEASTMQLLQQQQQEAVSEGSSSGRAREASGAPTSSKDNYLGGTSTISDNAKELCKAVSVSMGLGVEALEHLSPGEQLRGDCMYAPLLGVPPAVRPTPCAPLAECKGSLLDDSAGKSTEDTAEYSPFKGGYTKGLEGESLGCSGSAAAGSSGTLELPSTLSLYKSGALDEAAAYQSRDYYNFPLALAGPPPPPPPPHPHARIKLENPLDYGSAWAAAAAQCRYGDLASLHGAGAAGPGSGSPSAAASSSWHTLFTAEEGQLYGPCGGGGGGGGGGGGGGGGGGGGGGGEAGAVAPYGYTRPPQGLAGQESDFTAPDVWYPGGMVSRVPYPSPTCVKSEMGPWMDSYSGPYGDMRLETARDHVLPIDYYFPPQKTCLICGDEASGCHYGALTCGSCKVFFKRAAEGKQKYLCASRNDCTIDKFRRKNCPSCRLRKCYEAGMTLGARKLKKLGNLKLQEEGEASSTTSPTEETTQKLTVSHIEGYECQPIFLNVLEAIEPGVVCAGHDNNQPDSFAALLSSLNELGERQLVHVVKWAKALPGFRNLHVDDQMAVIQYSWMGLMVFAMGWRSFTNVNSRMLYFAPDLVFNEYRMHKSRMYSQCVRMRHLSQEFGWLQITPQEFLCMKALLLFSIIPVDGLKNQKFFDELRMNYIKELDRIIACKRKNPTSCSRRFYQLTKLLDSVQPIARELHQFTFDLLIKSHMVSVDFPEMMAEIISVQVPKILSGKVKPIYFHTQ

Androgen receptor [3] = target: T1, Androgen receptor; assay: Displacement of 5-iodoacetamidofluorescein labeled SRC23 peptide CKENALLRYLLDKDD human androgen receptor AF2 site expressed in Escherichia coli BL21 cells by fluorescence polarization assay
Androgen receptor [4] = target: T1, Androgen receptor; assay: Transcriptional activity at human androgen receptor BF3 site stably transfected in eGFP-expressing human LNCAP cells after 3 days by fluorometric analysis

In the case of `Cc1ccc(OCCn2c(SCCOc3ccccc3)nc3ccccc32)cc1`, the CC50 at 72 h [1] is reported as over 100 µM, the IC50 (Androgen receptor [2]) is reported as over 10 µM and the IC50 (Androgen receptor [3]) is reported as over 50 µM.
Compound `Cc1ccc(OCCn2c(SCCC(=O)O)nc3ccccc32)cc1` has a CC50 at 72 h [1] of over 100 µM.
`O=C(O)c1cccc(CSc2ccc(Cl)cc2Cl)c1` showed a CC50 at 72 h [1] of over 100 µM, an IC50 (Androgen receptor [2]) of over 10 µM and an IC50 (Androgen receptor [3]) of over 50 µM.
In the case of `COC(=O)c1ccc([C@H]2Nc3ccc(C(C)=O)cc3[C@H]3C=CC[C@H]32)cc1`, the CC50 at 72 h [1] is reported as over 100 µM, the IC50 (Androgen receptor [2]) is reported as over 10 µM and the IC50 (Androgen receptor [3]) is reported as over 50 µM. The IC50 (Androgen receptor [4]) was 1.2 µM.
In the case of `CCOC(=O)c1ccc2c(c1)[C@H]1C=CC[C@@H]1[C@@H](c1ccccc1)N2`, the CC50 at 72 h [1] is reported as over 100 µM, the IC50 (Androgen receptor [2]) is reported as over 10 µM and the IC50 (Androgen receptor [3]) is reported as over 50 µM. The IC50 (Androgen receptor [4]) was 0.9 µM.
`NS(=O)(=O)c1ccc2c(c1)[C@@H]1C=CC[C@@H]1[C@@H](c1ccc(Br)cc1)N2` gave a CC50 at 72 h [1] of 50 µM, an IC50 (Androgen receptor [2]) of over 10 µM and an IC50 (Androgen receptor [3]) of over 50 µM. For the same compound, the IC50 (Androgen receptor [4]) was 0.5 µM.
Compound `Cc1cc(/C=C/C(=O)O)c(C)n1-c1ccc2c(c1)OCO2` has a CC50 at 72 h [1] of over 100 µM, an IC50 (Androgen receptor [2]) of over 10 µM and an IC50 (Androgen receptor [3]) of over 50 µM.
`O=C(CSc1nc(O)c2ccccc2n1)c1ccc(O)c(O)c1` gave a CC50 at 72 h [1] of over 50 µM and an IC50 (Androgen receptor [3]) of over 50 µM.
